Patent publication US20250129028A1, “COMPOUNDS AND METHODS FOR YAP/TEAD MODULATION AND INDICATIONS THEREFOR” (Opna Bio SA, priority 2022, published 2025)

What follows are compounds tested on TEAD-dependent transcription (assay: TEAD-dependent transcription cell-based reporter assay (MSTO-211H+12XGTIIC luciferase)). Conditions: Homo sapiens; MSTO-211H+12XGTIIC cell line, luciferase signal normalized to cell viability, 24 hours compound incubation; read-out: MSTO-211H GMean IC50 (uM) Cell Assay Reporter Cell Variant: TEAD.
Design: species or system human
Procedure, shortened: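 MSTO-211H mesothelioma cells stably carrying a 12xGTIIC TEAD-response-element luciferase reporter, treated with serial compound dilutions for 24 h at 37 °C. Luminescence normalized to CellTiter-Fluor viability signal; % inhibition versus DMSO and 20 μM K-975 controls, IC50 by nonlinear regression.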
With `C=CS(=O)(=O)N1CC(C(=O)N2CCc3ccc(Oc4ccc(C(F)(F)F)c(F)c4)cc3C2)C1` [P-0157, (7-(3-fluoro-4-(trifluoromethyl)phenoxy)-3,4-dihydroisoquinolin-2(1H)-yl)(1-(vinylsulfonyl)azetidin-3-yl)methanone] the IC50 was 0.001 to 10 µM. Work on `NC(=O)CCS(=O)(=O)N1CCc2ccc(Oc3ccc(C(F)(F)F)cc3)cc2C1` [P-0051, 3-((7-(4-(trifluorometh-yl)phenoxy)-3,4-dihydro-isoquinolin-2(1H)-yl)sul-fonyl)propanamide] yielded an IC50 of 0.001 to 10 µM. `CCNC(=O)N1CCc2ccc(Oc3ccc(C(F)(F)F)cc3)cc2C1` [P-0003, N-ethyl-7-(4-(trifluoro-methyl)phenoxy)-3,4-dihydroisoquinoline-2(1H)-carboxamide] gave an IC50 of 0.001 to 10 µM. Work on `O=C(Cc1ncc[nH]1)N1CCc2ccc(Oc3ccc(C(F)(F)F)c(F)c3)cc2C1` [P-0152, 1-(7-(3-fluoro-4-(trifluoromethyl)phen-oxy)-3,4-dihydroisoquin-olin-2(1H)-yl)-2-(1H-imidazol-2-yl)ethan-1-one] yielded an IC50 of 0.001 to 10 µM. Compound `O=C(CCn1cnnc1)N1CCc2c(cccc2Oc2ccc(C(F)(F)F)cc2)C1` [P-0250, 3-(4H-1,2,4-triazol-4-yl)-1-(5-(4-(trifluoromethyl)-phenoxy)-3,4-dihydro-isoquinolin-2(1H)-yl)-propan-1-one] has an IC50 of 0.001 to 10 µM. For `NC(=O)c1cccc(N2CCc3ccc(Oc4ccc(C(F)(F)F)cc4)cc3C2)n1` [P-0228, 6-(7-(4-(trifluoromethyl)-phenoxy)-3,4-dihydro-isoquinolin-2(1H)-yl)-picolinamide], the IC50 was 0.001 to 10 µM. Work on `CP(C)(=O)CCC(=O)N1CCc2ccc(Oc3ccc(C(F)(F)F)cc3)cc2C1` [P-0041, 3-(dimethylphosphoryl)-1-(7-(4-(trifluorometh-yl)phenoxy)-3,4-dihydro-isoquinolin-2(1H)-yl)-propan-1-one] yielded an IC50 of 0.001 to 10 µM. For `O=C(c1cocn1)N1CCc2ccc(Oc3ccc(C(F)(F)F)cc3)cc2C1` [P-0108, oxazol-4-yl(7-(4-(trifluoromethyl)phen-oxy)-3,4-dihydroisoquin-olin-2(1H)-yl)methanone], the IC50 was 0.001 to 10 µM. Work on `O=C(C1CNC1)N1CCc2ccc(Oc3ccc(C(F)(F)F)c(F)c3)cc2C1` [P-0144, azetidin-3-yl(7-(3-fluoro-4-(trifluoromethyl)phen-oxy)-3,4-dihydroisoquin-olin-2(1H)-yl)methanone] yielded an IC50 of 0.001 to 10 µM. Work on `Nc1nc(C(=O)N2CCc3ccc(Oc4ccc(C(F)(F)F)cc4)cc3C2)c[nH]1` [P-0107, (2-amino-1H-imidazol-4-yl)(7-(4-(trifluoromethyl)-phenoxy)-3,4-dihydroiso-quinolin-2(1H)-yl)meth-anone] yielded an IC50 of 0.001 to 10 µM. In the case of `O=C(CCc1nnc[nH]1)N1CCc2ccc(Oc3ccc(C(F)(F)F)cc3)cc2C1` [P-0058, 3-(4H-1,2,4-triazol-3-yl)-1-(7-(4-(trifluorometh-yl)phenoxy)-3,4-dihydro-isoquinolin-2(1H)-yl)-propan-1-one], the IC50 was 0.001 to 10 µM. `O=C(CCc1cnc[nH]1)N1CCc2ccc(Oc3ccc(C(F)(F)F)c(F)c3)cc2C1` [P-0151, 1-(7-(3-fluoro-4-(trifluoromethyl)phen-oxy)-3,4-dihydroisoquin-olin-2(1H)-yl)-3-(1H-imidazol-5-yl)propan-1-one] showed an IC50 of 0.001 to 10 µM. `C=CC(=O)N1CCC(C2c3cc(Oc4ccc(C(F)(F)F)cc4)ccc3CCN2C(=O)CCS(C)(=O)=O)CC1` (centres unmarked) [P-0223, 1-(4-(2-(3-(methylsulfon-yl)propanoyl)-7-(4-(trifluoromethyl)phen-oxy)-1,2,3,4-tetrahydro-isoquinolin-1-yl)piper-idin-1-yl)prop-2-en-1-one] was tested, and the IC50 was 0.001 to 10 µM. In the case of `O=C(CC1CCOCC1)N1CCc2ccc(Oc3ccc(C(F)(F)F)cc3)cc2C1` [P-0087, 2-(tetrahydro-2H-pyran-4-yl)-1-(7-(4-(trifluoro-methyl)phenoxy)-3,4-dihydroisoquinolin-2(1H)-yl)ethan-1-one], the IC50 was 0.001 to 10 µM. `O=C(C1CCS(=O)(=O)C1)N1CCc2ccc(Oc3ccc(C(F)(F)F)cc3)cc2C1` (centres unmarked) [P-0045, (1,1-dioxidotetrahydro-thiophen-3-yl)(7-(4-(trifluoromethyl)phen-oxy)-3,4-dihydroisoquin-olin-2(1H)-yl)methanone] showed an IC50 of 0.001 to 10 µM. With `CC(=O)N1CC=C(c2c(Oc3ccc(C(F)(F)F)cc3)ccc3c2CN(C(=O)CCS(C)(=O)=O)CC3)CC1` [P-0214, 1-(8-(1-acetyl-1,2,3,6-tetrahydropyridin-4-yl)-7-(4-(trifluoromethyl)-phenoxy)-3,4-dihydroiso-quinolin-2(1H)-yl)-3-(methylsulfonyl)propan-1-one] the IC50 was 10 to 100 µM. With `O=C1N[C@@H](CC(=O)N2CCc3ccc(Oc4ccc(C(F)(F)F)c(F)c4)cc3C2)CO1` [P-0140, (S)-4-(2-(7-(3-fluoro-4-(trifluoromethyl)phen-oxy)-3,4-dihydroisoquin-olin-2(1H)-yl)-2-oxoeth-yl)oxazolidin-2-one] the IC50 was 0.001 to 10 µM. `CS(=O)(=O)CCCN1CCc2ccc(Oc3ccc(C(F)(F)F)cc3)cc2C1` [P-0053, 2-(3-(methylsulfonyl)-propyl)-7-(4-(trifluoro-methyl)phenoxy)-1,2,3,4-tetrahydroisoquinoline] gave an IC50 of 0.001 to 10 µM. Work on `NS(=O)(=O)NCC(=O)N1CCc2ccc(Oc3ccc(C(F)(F)F)cc3)cc2C1` [P-0054, N-(2-(7-(4-(trifluorometh-yl)phenoxy)-3,4-dihydro-isoquinolin-2(1H)-yl)-2-oxoethyl)sulfamide] yielded an IC50 of 0.001 to 10 µM. `O=S(=O)(C1CCCC1)N1CCc2c(cccc2Oc2ccc(C(F)(F)F)cc2)C1` [P-0236, 2-(cyclopentylsulfonyl)-5-(4-(trifluoromethyl)-phenoxy)-1,2,3,4-tetra-hydroisoquinoline] showed an IC50 of 0.001 to 10 µM. `C=CC(=O)N1CCC(C(=O)N2CCc3ccc(Oc4ccc(C(F)(F)F)c(F)c4)cc3C2)CC1` [P-0121, 1-(4-(7-(3-fluoro-4-(trifluoromethyl)phen-oxy)-1,2,3,4-tetrahydro-isoquinoline-2-carbon-yl)piperidin-1-yl)prop-2-en-1-one] showed an IC50 of 0.001 to 10 µM. Compound `O=C(Cc1cnc[nH]1)N1CCc2c(cccc2-c2ccc(C(F)(F)F)cc2)C1` [P-0275, 2-(1H-imidazol-5-yl)-1-(5-(4-(trifluoromethyl)-phenyl)-3,4-dihydroiso-quinolin-2(1H)-yl)ethan-1-one] has an IC50 of 0.001 to 10 µM. With `N#CCCC(=O)N1CCc2c(cccc2Oc2ccc(C(F)(F)F)cc2)C1` [P-0239, 4-oxo-4-(5-(4-(trifluoromethyl)phenoxy)-3,4-dihydroisoquinolin-2(1H)-yl)butanenitrile] the IC50 was 0.001 to 10 µM. Work on `CN1CCN(CCC(=O)N2CCc3ccc(Oc4ccc(C(F)(F)F)c(F)c4)cc3C2)CC1` [P-0095, 1-(7-(3-fluoro-4-(trifluoromethyl)phenoxy)-3,4-dihydroisoquinolin-2(1H)-yl)-3-(4-methylpiperazin-1-yl)propan-1-one] yielded an IC50 of 0.001 to 10 µM. Work on `N#CC1(CC(=O)N2CCc3ccc(Oc4ccc(C(F)(F)F)cc4)cc3C2)CC1` [P-0060, 1-(2-oxo-2-(7-(4-(trifluoromethyl)phen-oxy)-3,4-dihydroiso-quinolin-2(1H)-yl)-ethyl)cyclopropane-1-carbonitrile] yielded an IC50 of 0.001 to 10 µM. Work on `CS(=O)(=O)CCC(=O)N1CCc2ccc(Oc3ccc(C(F)(F)F)cc3)c(Br)c2C1` [P-0205, 1-(8-bromo-7-(4-(trifluoromethyl)phen-oxy)-3,4-dihydroisoquin-olin-2(1H)-yl)-3-(methyl-sulfonyl)propan-1-one] yielded an IC50 of 0.001 to 10 µM. Work on `C=CC(=O)N1CCCC(C(=O)N2CCc3ccc(Oc4ccc(C(F)(F)F)c(F)c4)cc3C2)C1` (centres unmarked) [P-0120, 1-(3-(7-(3-fluoro-4-(trifluoromethyl)phen-oxy)-1,2,3,4-tetrahydro-isoquinoline-2-carbon-yl)piperidin-1-yl)prop-2-en-1-one] yielded an IC50 of 0.001 to 10 µM. With `C=CC(=O)Nc1ncc(CC(=O)N2CCc3ccc(Oc4ccc(C(F)(F)F)c(F)c4)cc3C2)s1` [P-0163, N-(5-(2-(7-(3-fluoro-4-(trifluoromethyl)phen-oxy)-3,4-dihydroisoquin-olin-2(1H)-yl)-2-oxoeth-yl)thiazol-2-yl)acrylamide] the IC50 was 0.001 to 10 µM. In the case of `O=C(C(O)CO)N1CCc2ccc(Oc3ccc(C(F)(F)F)cc3)cc2C1` (centres unmarked) [P-0007, 2,3-dihydroxy-1-(7-(4-(trifluoromethyl)phen-oxy)-3,4-dihydroisoquin-olin-2(1H)-yl)propan-1-one], the IC50 was 0.001 to 10 µM. `CCC1c2cc(Oc3ccc(C(F)(F)F)cc3)ccc2CCN1C(=O)CCS(C)(=O)=O` (centres unmarked) [P-0209, 1-(1-ethyl-7-(4-(trifluoro-methyl)phenoxy)-3,4-dihydroisoquinolin-2(1H)-yl)-3-(methylsul-fonyl)propan-1-one] was tested, and the IC50 was 0.001 to 10 µM. `NS(=O)(=O)CCC(=O)N1CCc2ccc(Oc3ccc(C(F)(F)F)cc3)cc2C1` [P-0048, 3-oxo-3-(7-(4-(trifluoro-methyl)phenoxy)-3,4-dihydroisoquinolin-2(1H)-yl)propane-1-sulfonamide] gave an IC50 of 0.001 to 10 µM. Compound `O=C(CN1C(=O)CCC1=O)N1CCc2ccc(Oc3ccc(C(F)(F)F)cc3)cc2C1` [P-0044, 1-(2-oxo-2-(7-(4-(trifluoromethyl)phen-oxy)-3,4-dihydroiso-quinolin-2(1H)-yl)-ethyl)pyrrolidine-2,5-dione] has an IC50 of 0.001 to 10 µM. `O=C(C1CCNCC1)N1CCc2ccc(Oc3ccc(C(F)(F)F)c(F)c3)cc2C1` [P-0147, (7-(3-fluoro-4-(trifluoro-methyl)phenoxy)-3,4-dihydroisoquinolin-2(1H)-yl)(piperidin-4-yl)-methanone] gave an IC50 of 0.001 to 10 µM. `O=C(NC1(C(=O)N2CCc3ccc(Oc4ccc(C(F)(F)F)cc4)cc3C2)CC1)C(F)(F)F` [P-0136, 2,2,2-trifluoro-N-(1-(7-(4-(trifluoromethyl)phen-oxy)-1,2,3,4-tetrahydro-isoquinoline-2-carbonyl)-cyclopropyl)acetamide] was tested, and the IC50 was 0.001 to 10 µM. `CC(C)(C)OC(=O)NCC(=O)N1CCc2ccc(Oc3ccc(C(F)(F)F)c(F)c3)cc2C1` [P-0112, tert-butyl (2-(7-(3-fluoro-4-(trifluoromethyl)phen-oxy)-3,4-dihydroisoquin-olin-2(1H)-yl)-2-oxoeth-yl)carbamate] was tested, and the IC50 was 0.001 to 10 µM.
